Experimental data published in patent US20240148940A1, “METHODS OF INHIBITION” (Queensland Eye Institute Foundation, priority 2022, published 2024).

Assays:
[1] = tested on: isolated porcine aortic adventitia; assay: Biaxial tensile measurements on isolated porcine aortic adventitia; settings: 25% stretch, UV-A 365 nm, 45 mW/cm^2, 10 minutes, n=23
Method: Twenty-three porcine aortas from the abdominal region were used in this study and processed initially as described in Example 1. Irradiation was conducted in the presence of a solution of riboflavin 5′-phosphate monosodium salt in saline in accordance with the procedure of Example 1. The isolated adventitial specimens were then cut into squares of 14 mm×14 mm, and thickness was measured with a digital caliper at three spots and averaged. The tensile properties were measured and recorded biaxially in the CS BioTester™ 5000 biotesting system (CellScale Biomaterials Testing, Waterloo, ON, Canada), equipped with two 2.5-N load cells, using a set of four BioRakes™ that consisted each of 5 tungsten tines spaced evenly. All samples were submerged in a temperature-controlled bath containing PBS at 37° C., and tested by stretching the gripped area (11 mm×11 mm) to 25% of total stretch, at a rate of 1%/s. The samples were preconditioned for 10 cycles, and the tenth cycle was used for subsequent analysis. Assuming that tissue was incompressible and had negligible shear components, the Cauchy stress (σ) was determined with the equations: […]
In these equations, F is the measured load, λ is the stretch, X is the initial length, T is the averaged initial thickness of the tissue sample. […] The stretch was calculated as follows: […]
These characteristics were evaluated for 25% stretch (strain). […]

[2] = tested on: isolated porcine aortic adventitia subjected to collagenase; assay: Uniaxial tensile testing of enzymatically degraded (collagenolysis) isolated porcine aortic adventitia; settings: collagenase 20 U/mL, 8 or 20 hours, UV-A 365 nm, 45 mW/cm^2, 10 minutes
Method: An Instron Materials Testing System Model #5943 (Instron, Norwood, MA, USA), equipped with a 50-N load cell, was used to measure uniaxially the tensile properties of isolated adventitia specimens (n=30), prior to and after irradiation. Irradiation was conducted in the presence of a solution of riboflavin 5′-phosphate monosodium salt in saline in accordance with the procedure of Example 1. Before measurements, each specimen was soaked in phosphate buffered saline (PBS) for at least 1 hour at room temperature. Strips (1 cm×3 cm) were cut, and their thickness and width were measured with a digital caliper (Digimax Global Inc., Toronto, Canada). Thirty measurements for specimens in each set of samples (non-irradiated and irradiated) were carried out along the longitudinal direction at a set gauge distance of 16 mm and a speed of 10 mm/min. The values for Young's moduli were computed from the recorded stress-strain plots in the linear region.
Thirty porcine adventitial specimens were isolated and exposed to UV-A radiation as described in Example 1. Irradiation was conducted in the presence of a solution of riboflavin 5′-phosphate monosodium salt in saline in accordance with the procedure of Example 1. Non-irradiated and irradiated adventitial specimens, as sets of 10 pieces each (5 cm×3 cm), were soaked in saline for 1 hour with gentle shaking, and then placed into the wells of 6-well plates. A solution containing 20 U/mL (˜0.08 mg/mL) collagenase was prepared in Tris buffer (0.05 M, pH 7.4), which also contained calcium chloride (10 mM) and sodium azide (0.02%). To each well, 5 mL of this solution was added to cover the samples. The well plates were placed in an orbital shaker and shaken at 160 rpm for either 8 hours or 20 hours at 37° C. […]
The three sets of adventitial specimens designated as (1), (2) and (3) in Example 5 were evaluated by uniaxial tensile testing following the procedure described in Example 2. […]

[3] = tested on: isolated porcine aortic adventitia; assay: Uniaxial tensile measurements on isolated porcine aortic adventitia, irradiated vs non-irradiated; settings: 0.1% w/v in saline, UV-A 365 nm, 45 mW/cm^2, 10 minutes, both sides, n=30
Method: Twenty-five porcine aortas from the abdominal region were used in this study, sourced from an abattoir. The aorta specimens were processed by first removing the extraneous adipose and loose connective tissue debris from the external surface using surgical scissors. One cut was then performed along the longitudinal axis of each aortic tube, in order to obtain flat rectangular sheets. A surgical scalpel was used to make an initial cornerwise-interstitial incision between adventitia and media layers, and the adventitial layer was carefully dissected and peeled off by hand. […] The irradiance at the exposure site was monitored with the radiometer Dymax ACCU-CAL 50 (Dymax Corp., Torrington, CT, USA). […]
An Instron Materials Testing System Model #5943 (Instron, Norwood, MA, USA), equipped with a 50-N load cell, was used to measure uniaxially the tensile properties of isolated adventitia specimens (n=30), prior to and after irradiation. […] Strips (1 cm×3 cm) were cut, and their thickness and width were measured with a digital caliper (Digimax Global Inc., Toronto, Canada). […] The values for Young's moduli were computed from the recorded stress-strain plots in the linear region.
Irradiation was conducted in the presence of a solution of riboflavin 5′-phosphate monosodium salt in saline in accordance with the procedure of Example 1. The results were expressed as mean values±standard error of the mean. […]

Young's modulus (stiffness) vs degradation time, samples first irradiated then subjected to collagenolysis (I/D) compared with D and D/I ([2]; 37° C., n=30): highest
ultimate stress (strength) vs degradation time, samples first irradiated then subjected to collagenolysis (I/D) compared with D and D/I ([2]; 37° C., n=30): highest
statistical differences between degraded non-irradiated samples (D) and those irradiated after degradation (D/I), modulus and stress ([2]; p~0.2-0.5): low significance
Structure (SMILES): Cc1cc2nc3c(=O)[nH]c(=O)nc-3n(C[C@H](O)[C@H](O)[C@H](O)COP(=O)([O-])O)c2cc1C.[Na+] [riboflavin 5′-phosphate monosodium salt]
Cauchy stress, difference between non-irradiated and irradiated specimens ([1]; circumferential (p=1.4×10^−3) and longitudinal (p=5.3×10^−4)): high level of statistical significance
tangent modulus (stiffness), difference between non-irradiated and irradiated specimens ([1]; circumferential (p=6.8×10^−5) and longitudinal (p=7.1×10^−5)): high level of statistical significance
Young's modulus (stiffness), difference between non-irradiated and irradiated specimens ([3]; p=0.0012): statistically significant
ultimate stress (maximum load at the time of rupture), difference between non-irradiated and irradiated specimens ([3]; p=0.0015): statistically significant
